What was measured:
Trypanosoma cruzi [1] = assay: GSK_TCAKS: pIC50 Trypanosoma cruzi viability assay using beta-GAL activity. This assay was run at single shot at 5uM compound concentration per well. The biological reagents consisted of NIH-3T3 host cells and trypomastigotes parasitic cells; both cell types were set to a 3.3 * 10^5 cells/mL dilution in assay DMEM by means of a CASY cell counter device using a 60um capillary. 6 uL of the mixture were dispensed per well (about 1 * 10^3 host-cells and 1 * 10^3 parasites) with a Multidrop Combi dispenser. […] In all wells, the percentage of DMSO never exceeded 0.5%. Plates incubated for four days at 37C, 5% CO2. The substrate used for the assay fluorescence intensity (FLINT) readout was resorufin-beta-D-galactopiranoside (Sigma-Aldrich) at 5uM per well. It was diluted in PBS supplemented with the soft detergent Igepal (Fluka).; format: functional, organism-based, Mus musculus; details: Tulahuen, NIH3T3
Trypanosoma cruzi [2] = assay: (§1) GSK_TCAKS: pIC50 Trypanosoma cruzi Imaging: Infected Cells. […] Cells were then washed once with PBS before infection. T. cruzi trypomastigotes, collected at days 5 to 8 after infection from LLC-MK2 parasite infected cultures, were allowed to swim out for 4h at 37C from a centrifuged pellet (2,500 rpm/10 min/room temperature). Trypomastigotes were then collected and counted in a CASY Cell Counter. Trypomastigotes, in supplemented DMEM, were added to H9c2 cultures in a multiplicity of infection of 1 and incubated for 18 h. Cells were washed once with PBS before incubation of the infected H9c2 monolayer with trypsin (Life-Technologies) to detach cells from the flask. Cells were counted in a CASY Cell Counter using a 150 um capillary and their density set at 5 * 10^4 cells per mL in supplemented assay DMEM. Infected H9c2 were dispensed into 384-well poly-lysine coated assay plates at 50uL per well using a Multidrop Combi dispenser. After seeding them, the plates were incubated at 37C, 5% CO2 for 72h. Cultures were then fixed and stained by addition of 50 uL of a solution containing 8% formaldehyde and 4 uM DRAQ5 DNA dye (BioStatus, UK) per well. […] Five images were collected per well for reliable statistical analysis. Automated image analysis was performed with a script developed on Acapella High Content Imaging and Analysis Software (PerkinElmer). Output: percentage of infected cells per well as a second infection marker.; format: functional, organism-based, Rattus norvegicus; details: H9c2, 4 h
Trypanosoma cruzi [3] = assay: GSK_TCAKS: pIC50 Trypanosoma cruzi Imaging: Amastigotes/Cell. […] Cells were then washed once with PBS before infection. T. cruzi trypomastigotes, collected at days 5 to 8 after infection from LLC-MK2 parasite infected cultures, were allowed to swim out for 4h at 37C from a centrifuged pellet (2,500 rpm/10 min/room temperature). Trypomastigotes were then collected and counted in a CASY Cell Counter. Trypomastigotes, in supplemented DMEM, were added to H9c2 cultures in a multiplicity of infection of 1 and incubated for 18 h. Cells were washed once with PBS before incubation of the infected H9c2 monolayer with trypsin (Life-Technologies) to detach cells from the flask. Cells were counted in a CASY Cell Counter using a 150 um capillary and their density set at 5 * 10^4 cells per mL in supplemented assay DMEM. Infected H9c2 were dispensed into 384-well poly-lysine coated assay plates at 50uL per well using a Multidrop Combi dispenser. After seeding them, the plates were incubated at 37C, 5% CO2 for 72h. Cultures were then fixed and stained by addition of 50 uL of a solution containing 8% formaldehyde and 4 uM DRAQ5 DNA dye (BioStatus, UK) per well. […] Five images were collected per well for reliable statistical analysis. Automated image analysis was performed with a script developed on Acapella High Content Imaging and Analysis Software (PerkinElmer). Output: number of amastigotes per cell as infection level measurement.; format: functional, organism-based, Rattus norvegicus; details: H9c2, 4 h
Trypanosoma cruzi [4] = assay: as §1, with “H2C9” for “Trypanosoma cruzi”, “H9c2 Host Cardiomyocytes.” for “Infected Cells.”, “Number” for “percentage”, “H9c2 Host Cardiomyocytes nuclei to determine drug-related cytotoxicity.” for “infected cells per well as a second infection marker.”; format: functional, organism-based, Rattus norvegicus; details: H9c2, 4 h
Leishmania donovani [5] = assay: GSK_TCAKS: pIC50 Leishmania donovani viability assay using fluorescence intensity. Assay plates (1536-well) were prepared by adding 30nL per well of compound. For single shot assay, the final compound concentration was 5uM. […] Briefly, eGFP LdBOB axenic amastigotes were harvested, fixed and counted in a CASY cell counter (Roche-Applied Science). A final concentration of 1.5 * 10^5 cells per well were prepared in amastigote media containing 500 U/mL penicillin/streptomycin (Invitrogen) and 6uL was dispensed to each experimental well using a Multidrop Combi dispenser (Thermo Scientific). 6uL of assay media was dispensed to control columns used as reference for 100% compound response. Following incubation for 72 h at 37C, 5% CO2, 2 uL of resazurin was added to each well at a final concentration of 0.5 mM in phosphate buffered saline (PBS) with IGEPAL (Sigma-Aldrich), 0.05% (v/v).; format: functional, organism-based
Leishmania donovani [6] = assay: GSK_TCAKS: pIC50 Leishmania donovani Imaging: Infected Macrophages. Assay plates (384-well) were prepared by adding 250nL of compound to each well. For single shot assay, the final compound concentration was 5 uM. […] Automated image analysis was performed with a script developed on Acapella High Content Imaging and Analysis Software (PerkinElmer). Output: Percent of infected macrophage cells were reported for each well.; format: functional, organism-based, Homo sapiens; details: THP-1
Leishmania donovani [7] = assay: GSK_TCAKS: pIC50 Leishmania donovani Imaging: Amastigotes/Macrophages. Assay plates (384-well) were prepared by adding 250nL of compound to each well. For single shot assay, the final compound concentration was 5 uM. […] Automated image analysis was performed with a script developed on Acapella High Content Imaging and Analysis Software (PerkinElmer). Output: Average number of amastigotes per macrophage cell were reported for each well.; format: functional, organism-based, Homo sapiens; details: THP-1
Leishmania donovani [8] = assay: GSK_TCAKS: pIC50 Leishmania donovani Imaging: THP-1 Host Macrophages. Assay plates (384-well) were prepared by adding 250nL of compound to each well. For single shot assay, the final compound concentration was 5 uM. […] Automated image analysis was performed with a script developed on Acapella High Content Imaging and Analysis Software (PerkinElmer). Output: THP-1 cell count were reported for each well.; format: functional, organism-based, Homo sapiens
[9] = system: Trypanosoma brucei brucei; assay: GSK_TCAKS: pIC50 Trypanosoma brucei viability assay using fluorescence intensity. Assay plates (1536-well) were prepared by dispensing 25nL of compound solution per well using an Echo acoustic dispenser (Labcyte).; format: functional, organism-based; details: Lister 427, 2 h
[10] = system: Trypanosoma brucei brucei; assay: GSK_TCAKS: pIC50 Trypanosoma brucei viability assay using luminiscence. Assay plates (1536-well) were prepared. T. brucei cultures were harvested and counted in a CASY cell counter. A parasite suspension was prepared at a final concentration of 5 * 10^4 cells/mL in complete HMI9 medium and 6uL was dispensed to all wells containing compounds using a Multidrop Combi dispenser. 6uL of HMI9 media with 0.4% DMSO were dispensed to control columns. Plates were incubated for 24 h at 37C, 5% CO2 then tempered for 10 min at room temperature. ATP content was quantified by adding 4 uL of CellTiter-Glo Reagent (Promega) according to the manufacturer's instructions. Luminescence was measured using a ViewLux.; format: functional, organism-based; details: Lister 427, CASY
[11] = GSK_TCAKS: pIC50 HepG2 human cell line viability assay using luminiscence. […] Seeding density was checked to ensure that new mono-layers were not more than 50% confluent at the time of harvesting. Cell suspension was added to 500 mL of the same medium at a final density of 1.2 * 10^5 cells/mL. This cell suspension was dispensed (25 uL, 3000 cells per well) into 384-well clear-bottom plates using a Multidrop Combi dispenser. Prior to addition of the cell suspension, the screening compounds (250 nL) were pre-dispensed into the plates with an Echo liquid handler. Plates were incubated for 48 h at 37C, 5% CO2. After incubation, plates equilibrated at room temperature for 30 min before proceeding to develop the luminescent signal. The signal developer, CellTiter-Glo Reagent, was allowed to equilibrate at room temperature for 30 min and added to the plates (25uL per well) using a Multidrop Combi dispenser. Plates were left for 10 min at room temperature for stabilization and then read using a ViewLux.; format: toxicity, cell-based
NIH3T3 = assay: GSK_TCAKS: pIC50 NIH 3T3 cell line viability assay using luminiscence. Tissue culture surface treated assay plates (1536-well) were used. […] The 100% cells survival control was determined exposing the host-cells to a 0.5% DMSO concentration, whereas the 100% toxicity control was achieved by seeding the cells in presence of Amphotericin B at 50uM. Plates were incubated for four days at 37C, 5% CO2. The assay readout was developed by addition of 5uL of CellTiter-Glo Reagent following the manufacturer's instructions. Luminiscence was measured using a ViewLux.; format: functional, cell-based; details: Mus musculus, NIH3T3, 96 h
[12] = target: Sterol 14-alpha demethylase (Trypanosoma cruzi (strain CL Brener), UniProt Q7Z1V1); assay: GSK_TCAKS: pIC50 CYP51 from Trypanosoma cruzi.; format: functional
Chain of Sterol 14-alpha demethylase (Q7Z1V1 whole entry): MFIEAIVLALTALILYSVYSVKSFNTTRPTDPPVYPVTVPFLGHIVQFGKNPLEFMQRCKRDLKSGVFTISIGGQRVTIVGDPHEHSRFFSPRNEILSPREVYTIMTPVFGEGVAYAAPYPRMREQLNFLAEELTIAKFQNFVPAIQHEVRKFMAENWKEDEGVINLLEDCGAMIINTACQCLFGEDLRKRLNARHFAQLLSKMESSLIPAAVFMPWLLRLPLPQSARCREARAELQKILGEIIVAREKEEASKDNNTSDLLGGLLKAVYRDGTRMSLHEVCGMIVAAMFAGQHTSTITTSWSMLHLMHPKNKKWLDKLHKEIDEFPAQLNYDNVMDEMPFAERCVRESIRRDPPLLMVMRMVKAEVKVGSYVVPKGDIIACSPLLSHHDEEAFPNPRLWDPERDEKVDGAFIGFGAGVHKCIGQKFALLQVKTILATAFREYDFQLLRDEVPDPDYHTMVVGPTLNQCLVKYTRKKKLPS

Compound	IC50 (Trypanosoma cruzi [1])	IC50 (Trypanosoma cruzi [2])	IC50 (Trypanosoma cruzi [3])	IC50 (Trypanosoma cruzi [4])	IC50 (Leishmania donovani [5])	IC50 (Leishmania donovani [6])	IC50 (Leishmania donovani [7])	IC50 (Leishmania donovani [8])	IC50 [9]	IC50 [10]	IC50 at 48 h [11]	IC50 (NIH3T3)	IC50 [12]
COc1ccc(-c2nc3ncccc3o2)cc1NC(=O)c1cccs1	2 µM	2.51 µM	2 µM	> 50.1 µM	5.01 µM	> 50.1 µM	> 50.1 µM	20 µM	1.26 µM	2.51 µM	> 100 µM	> 50.1 µM	> 100 µM
O=C1CSC(c2cccnc2)N1c1ccc(Cl)cc1Cl (stereo not given)	0.0708 µM	0.251 µM	0.158 µM	> 50.1 µM	5.01 µM	> 50.1 µM	> 50.1 µM	> 50.1 µM	> 39.8 µM	> 39.8 µM	> 100 µM	> 50.1 µM	0.158 µM
CN(C)CCN(C)Cc1ccc(F)cc1NS(=O)(=O)c1ccc(Cl)c(Cl)c1	1.58 µM	2.51 µM	2 µM	6.31 µM	7.94 µM	7.94 µM	2.51 µM	31.6 µM	5.01 µM	5.01 µM	39.8 µM	15.8 µM	> 126 µM
Cn1nc([N+](=O)[O-])nc1Oc1ccc(C(=O)c2ccccc2)cc1	0.251 µM	0.316 µM	0.126 µM	> 50.1 µM	> 50.1 µM	> 50.1 µM	> 50.1 µM	> 50.1 µM	20 µM	> 39.8 µM	> 100 µM	> 50.1 µM	> 100 µM
CN1CCCN(C(=O)c2ccc(N3CCCC3)cc2Cl)CC1	0.891 µM	1 µM	0.631 µM	> 50.1 µM	39.8 µM	> 50.1 µM	> 50.1 µM	> 50.1 µM	> 39.8 µM	> 39.8 µM	> 100 µM	25.1 µM	> 100 µM
COc1ccc(C2CC(c3ccccc3Cl)=NN2C(=O)CNC(=O)C2CCC2)cc1 (stereo not given)	2.82 µM	1.58 µM	1 µM	> 50.1 µM	> 50.1 µM	> 50.1 µM	> 50.1 µM	> 50.1 µM	0.316 µM	0.501 µM	> 100 µM	31.6 µM	50.1 µM
CCC(=O)Nc1ccc(-c2nc3ccc(Cl)cc3[nH]2)cc1	2 µM	1.58 µM	0.501 µM	> 50.1 µM	> 50.1 µM	> 50.1 µM	> 50.1 µM	> 50.1 µM	6.31 µM	> 39.8 µM	> 100 µM	> 50.1 µM	> 100 µM
N#Cc1cc([N+](=O)[O-])ccc1NC1CCCCCC1	2.51 µM	2 µM	1.26 µM	> 50.1 µM	> 50.1 µM	> 50.1 µM	> 50.1 µM	> 50.1 µM	2.51 µM	3.16 µM	> 100 µM	> 50.1 µM	> 100 µM
Cc1nnnn1-c1cccc(C(=O)N2CCC[C@@]3(C)c4ncncc4CCC23)c1 (stereo not given in full)	0.631 µM	0.316 µM	0.316 µM	> 50.1 µM	0.398 µM	> 50.1 µM	6.31 µM	> 50.1 µM	> 39.8 µM	> 39.8 µM	> 100 µM	> 50.1 µM	25.1 µM
O=S(=O)(NCC(c1cccnc1)N1CCN(c2ccccc2F)CC1)c1ccc(F)cc1 (stereo not given)	0.501 µM	0.2 µM	0.2 µM	> 50.1 µM	3.98 µM	> 50.1 µM	3.98 µM	> 50.1 µM	25.1 µM	> 39.8 µM	> 100 µM	> 50.1 µM	0.0794 µM

From ChEMBL document CHEMBL3430912, “GSK Tres Cantos Anti-Kinetoplastid Screening (TCAKS) Data”
